{"source": "patent US20180353501A1", "about": "(Arvinas, Inc., priority 2017, published 2018)", "key": {"[1]": {"experiment": "Pharmacokinetics of intraperitoneal or intravenous injection in CD1 mice (plasma, LC/MS/MS)", "assay_type": "in vivo", "settings": "for concentration at 0.25 h / concentration at 0.5 h / concentration at 1 h / concentration at 2 h / concentration at 4 h / concentration at 8 h / concentration at 24 h / concentration at 0.033 h / concentration at 0.083 h: male, CD1, mouse, plasma", "method": "Pharmacokinetics of Intraperitoneal or Intravenous Injection of Example 1 or Example 2.\nThe pharmacokinetics of Example 1 and 2 was examined for intraperitoneal and intravenous administration. The desired serial concentrations of working solutions were achieved by diluting stock solution (1 mg/mL in DMSO) of analyte with methanol. In particular, 20 μL of working solutions (1, 2, 5, 10, 50, 100, 500, 1000, 2000 ng/mL) were added to 20 μL of the blank CD1 mice plasma to achieve calibration standards of 1-2000 ng/mL (1, 2, 5, 10, 50, 100, 500, 1000, 2000 ng/mL) in a total volume of 40 pt. Dose of IV and IP were diluted by 1000 fold and 10000 with methanol, 20 μL of the diluted dose solutions were added to 20 μL of the blank CD1 mice plasma to achieve dose samples. Next, 40 μL standards and 40 μL dose samples were added to 20 μL of assay Internal Standard (100 ng/mL) and 200 μL of acetonitrile for precipitating protein respectively. Then the samples were vortexed for 30 seconds. After centrifugation at 4 degree Celsius, 4000 rpm for 15 min, the supernatant was diluted 3 times with water. Then, 10 μL of the diluted supernatant was injected into the LC/MS/MS system for quantitative analysis.\nExamples 1 and 2 were administered intravenously (5 second injection of 10% HP-b-CD and 40 mM sodium acetate and 40 mM NaCl in water, pH4.5) or intraperitoneally (5% EtOH and 5% Solutol HS15 in D5W(ESD-2)) to 6-8 week old male CD1 mice (3 mice per treatment group for a total of 12 mice) at the time points indicated below in Table 3. The mice had free access to food and water.\nDorsal metatarsal vein samples (30 μL), except that the final sample was acquired via a heart puncture, were taken from the mice at the same the administration time points as shown in Table 2.\nThe data for Example 1 is shown below in FIG. 5 and Tables 5 (FIG. 6), 6 and 7. The data for Example 2 is shown in FIG. 7 and Tables 8 (FIG. 8), 9, and 10."}, "[2]": {"biological_target": "T1, MET (Y1235D) (Homo sapiens, UniProt P08581, Y1235D)", "T1 construct": "purchased DiscoverRx Corporation (KINOMEscan platform, service)", "experiment": "KINOMEscan in vitro kinase binding", "settings": "screened at 1000 nM; lower number = stronger binding", "method": "(§1) PROTAC in vitro binding affinities (Kd) to c-Met was determined using the KINOMEscan™ platform (DiscoverRx Corporation). The compounds were solubilized in DMSO and sent to DiscoverRx Corporation as 10 μM stock solutions."}, "[3]": {"biological_target": "T2, MET (Homo sapiens, UniProt P08581)", "T2 construct": "purchased DiscoverRx Corporation (KINOMEscan platform, service)", "experiment": "KINOMEscan in vitro kinase binding", "settings": "screened at 1000 nM", "method": "as §1"}, "[4]": {"biological_target": "T3, MET (M1250T) (Homo sapiens, UniProt P08581, M1250T)", "T3 construct": "purchased DiscoverRx Corporation (KINOMEscan platform, service)", "experiment": "KINOMEscan in vitro kinase binding", "settings": "screened at 1000 nM; lower number = stronger binding", "method": "as §1"}, "[5]": {"settings": "ip, 10 mg/kg, IP 10 mg/kg, read-out: Conc. Mean"}, "[6]": {"settings": "ip, 10 mg/kg, IP 10 mg/kg, read-out: Conc. Mouse 1"}, "[7]": {"settings": "ip, 10 mg/kg, IP 10 mg/kg, read-out: Conc. Mouse 2"}, "[8]": {"settings": "ip, 10 mg/kg, IP 10 mg/kg, read-out: Conc. Mouse 3"}, "[9]": {"settings": "iv, 1 mg/kg, IV 1.0 mg/kg, read-out: Conc. Mean"}, "[10]": {"settings": "iv, 1 mg/kg, IV 1.0 mg/kg, read-out: Conc. Mouse 1"}, "[11]": {"settings": "iv, 1 mg/kg, IV 1.0 mg/kg, read-out: Conc. Mouse 2"}, "[12]": {"settings": "iv, 1 mg/kg, IV 1.0 mg/kg, read-out: Conc. Mouse 3"}}, "note": "Where two headings read alike, the source gives them in different places."}
{"molecule": "COc1cc2c(Oc3ccc(NC(=O)C4(C(=O)Nc5ccc(F)cc5)CC4)cc3F)ccnc2cc1OCCCOCCCOCCC(=O)N[C@H](C(=O)N1C[C@H](O)C[C@H]1C(=O)NCc1ccc(-c2scnc2C)cc1)C(C)(C)C", "note": "[Example 1]", "values": [{"measurement": "Conc. Mouse 1", "setting": "[1]; IV 1.0 mg/kg, 24 h", "value": "BLOQ"}, {"measurement": "Conc. Mouse 2", "setting": "[1]; IV 1.0 mg/kg, 24 h", "value": "BLOQ"}, {"measurement": "concentration at 0.25 h", "setting": "[1]; [5]", "value": 2200, "unit": "ng/mL"}, {"measurement": "concentration at 0.25 h", "setting": "[1]; [6]", "value": 3420, "unit": "ng/mL"}, {"measurement": "concentration at 0.25 h", "setting": "[1]; [7]", "value": 2180, "unit": "ng/mL"}, {"measurement": "concentration at 0.25 h", "setting": "[1]; [8]", "value": 990, "unit": "ng/mL"}, {"measurement": "concentration at 0.5 h", "setting": "[1]; [5]", "value": 3310, "unit": "ng/mL"}, {"measurement": "concentration at 0.5 h", "setting": "[1]; [6]", "value": 5210, "unit": "ng/mL"}, {"measurement": "concentration at 0.5 h", "setting": "[1]; [7]", "value": 2500, "unit": "ng/mL"}, {"measurement": "concentration at 0.5 h", "setting": "[1]; [8]", "value": 2210, "unit": "ng/mL"}, {"measurement": "concentration at 1 h", "setting": "[1]; [5]", "value": 5530, "unit": "ng/mL"}, {"measurement": "concentration at 1 h", "setting": "[1]; [6]", "value": 4470, "unit": "ng/mL"}, {"measurement": "concentration at 1 h", "setting": "[1]; [7]", "value": 9060, "unit": "ng/mL"}, {"measurement": "concentration at 1 h", "setting": "[1]; [8]", "value": 3050, "unit": "ng/mL"}, {"measurement": "concentration at 2 h", "setting": "[1]; [5]", "value": 7500, "unit": "ng/mL"}, {"measurement": "concentration at 2 h", "setting": "[1]; [6]", "value": 5740, "unit": "ng/mL"}, {"measurement": "concentration at 2 h", "setting": "[1]; [7]", "value": 6210, "unit": "ng/mL"}, {"measurement": "concentration at 2 h", "setting": "[1]; [8]", "value": 10500, "unit": "ng/mL"}, {"measurement": "concentration at 4 h", "setting": "[1]; [5]", "value": 4520, "unit": "ng/mL"}, {"measurement": "concentration at 4 h", "setting": "[1]; [6]", "value": 6340, "unit": "ng/mL"}, {"measurement": "concentration at 4 h", "setting": "[1]; [7]", "value": 3740, "unit": "ng/mL"}, {"measurement": "concentration at 4 h", "setting": "[1]; [8]", "value": 3460, "unit": "ng/mL"}, {"measurement": "concentration at 8 h", "setting": "[1]; [5]", "value": 411, "unit": "ng/mL"}, {"measurement": "concentration at 8 h", "setting": "[1]; [6]", "value": 476, "unit": "ng/mL"}, {"measurement": "concentration at 8 h", "setting": "[1]; [7]", "value": 329, "unit": "ng/mL"}, {"measurement": "concentration at 8 h", "setting": "[1]; [8]", "value": 429, "unit": "ng/mL"}, {"measurement": "concentration at 24 h", "setting": "[1]; ip, 10 mg/kg, IP 10 mg/kg, 24 h, read-out: Conc. Mean", "value": 12.3, "unit": "ng/mL"}, {"measurement": "concentration at 24 h", "setting": "[1]; ip, 10 mg/kg, IP 10 mg/kg, 24 h, read-out: Conc. Mouse 1", "value": 12.2, "unit": "ng/mL"}, {"measurement": "concentration at 24 h", "setting": "[1]; ip, 10 mg/kg, IP 10 mg/kg, 24 h, read-out: Conc. Mouse 2", "value": 9.43, "unit": "ng/mL"}, {"measurement": "concentration at 24 h", "setting": "[1]; ip, 10 mg/kg, IP 10 mg/kg, 24 h, read-out: Conc. Mouse 3", "value": 15.1, "unit": "ng/mL"}, {"measurement": "concentration at 0.033 h", "setting": "[1]; [9]", "value": 2350, "unit": "ng/mL"}, {"measurement": "concentration at 0.033 h", "setting": "[1]; [10]", "value": 2050, "unit": "ng/mL"}, {"measurement": "concentration at 0.033 h", "setting": "[1]; [11]", "value": 2820, "unit": "ng/mL"}, {"measurement": "concentration at 0.033 h", "setting": "[1]; [12]", "value": 2190, "unit": "ng/mL"}, {"measurement": "concentration at 0.083 h", "setting": "[1]; [9]", "value": 1530, "unit": "ng/mL"}, {"measurement": "concentration at 0.083 h", "setting": "[1]; [10]", "value": 1200, "unit": "ng/mL"}, {"measurement": "concentration at 0.083 h", "setting": "[1]; [11]", "value": 1810, "unit": "ng/mL"}, {"measurement": "concentration at 0.083 h", "setting": "[1]; [12]", "value": 1590, "unit": "ng/mL"}, {"measurement": "concentration at 0.25 h", "setting": "[1]; [9]", "value": 691, "unit": "ng/mL"}, {"measurement": "concentration at 0.25 h", "setting": "[1]; [10]", "value": 491, "unit": "ng/mL"}, {"measurement": "concentration at 0.25 h", "setting": "[1]; [11]", "value": 991, "unit": "ng/mL"}, {"measurement": "concentration at 0.25 h", "setting": "[1]; [12]", "value": 590, "unit": "ng/mL"}, {"measurement": "concentration at 0.5 h", "setting": "[1]; [9]", "value": 397, "unit": "ng/mL"}, {"measurement": "concentration at 0.5 h", "setting": "[1]; [10]", "value": 280, "unit": "ng/mL"}, {"measurement": "concentration at 0.5 h", "setting": "[1]; [11]", "value": 497, "unit": "ng/mL"}, {"measurement": "concentration at 0.5 h", "setting": "[1]; [12]", "value": 413, "unit": "ng/mL"}, {"measurement": "concentration at 1 h", "setting": "[1]; [9]", "value": 143, "unit": "ng/mL"}, {"measurement": "concentration at 1 h", "setting": "[1]; [10]", "value": 142, "unit": "ng/mL"}, {"measurement": "concentration at 1 h", "setting": "[1]; [11]", "value": 135, "unit": "ng/mL"}, {"measurement": "concentration at 1 h", "setting": "[1]; [12]", "value": 153, "unit": "ng/mL"}, {"measurement": "concentration at 2 h", "setting": "[1]; [9]", "value": 70.3, "unit": "ng/mL"}, {"measurement": "concentration at 2 h", "setting": "[1]; [10]", "value": 55.5, "unit": "ng/mL"}, {"measurement": "concentration at 2 h", "setting": "[1]; [11]", "value": 92.9, "unit": "ng/mL"}, {"measurement": "concentration at 2 h", "setting": "[1]; [12]", "value": 62.3, "unit": "ng/mL"}, {"measurement": "concentration at 4 h", "setting": "[1]; [9]", "value": 15.4, "unit": "ng/mL"}, {"measurement": "concentration at 4 h", "setting": "[1]; [10]", "value": 16.8, "unit": "ng/mL"}, {"measurement": "concentration at 4 h", "setting": "[1]; [11]", "value": 15.4, "unit": "ng/mL"}, {"measurement": "concentration at 4 h", "setting": "[1]; [12]", "value": 13.9, "unit": "ng/mL"}, {"measurement": "concentration at 8 h", "setting": "[1]; [9]", "value": 8.6, "unit": "ng/mL"}, {"measurement": "concentration at 8 h", "setting": "[1]; [10]", "value": 10.1, "unit": "ng/mL"}, {"measurement": "concentration at 8 h", "setting": "[1]; [11]", "value": 10.6, "unit": "ng/mL"}, {"measurement": "concentration at 8 h", "setting": "[1]; [12]", "value": 5.2, "unit": "ng/mL"}, {"measurement": "concentration at 24 h", "setting": "[1]; iv, 1 mg/kg, IV 1.0 mg/kg, 24 h, read-out: Conc. Mouse 3", "value": 0.971, "unit": "ng/mL"}, {"measurement": "% Ctrl", "setting": "[2]", "value": 8.2, "unit": "% Ctrl"}, {"measurement": "binding to MET (in words)", "setting": "[3]", "value": "strong binding to MET"}, {"measurement": "% Ctrl", "setting": "[3]; lower number = stronger binding", "value": 0.75, "unit": "% Ctrl"}, {"measurement": "% Ctrl", "setting": "[4]", "value": 6.0, "unit": "% Ctrl"}]}
